Where “and” joins values, the source holds several entries; their conditions need not be identical. Equal entries are not always repeated. Where two headings read alike, the source gives them in different places.
Columns and labels:
μ opiate receptor = μ opiate receptor (Cavia porcellus, UniProt A0ACM8Q262); assay: biochemical; format: binding, guinea pig
male ICR mice = assay: In vivo mouse tail flick assay (radiant heat); conditions: for % Prolong.: 1 minute post-treatment vs 0 time; for tail flick response time, 1 Min. (single animal) / tail flick response time, 1 Min. (Avg.): 1 minute post-treatment; for tail flick response time, 1 Min. (single animal): cut-off 15 seconds; for tail flick response time, 1 Min. (Avg.) / tail flick response time, 0 Time (Avg.): group mean; for tail flick response time, 0 Time (Avg.) / tail flick response time, 0 Time (single animal): pre-treatment
δ opiate receptor = δ opiate receptor (Cavia porcellus, UniProt A0A286XTF2); assay: Opiate (δ) binding, [3H]DPDPE competitive radioligand binding; set-up: species or system guinea pig
[1] = target: opioid receptor (non-selective); assay: Opiate (non-selective) binding, [3H]naloxone; conditions: [3H]naloxone (1 nM), rat cerebral cortex membranes
[2] = read-out: inhibition of radioligand binding
[3] = 10 μg/5 μl ICV, listed as Test Compound
[4] = 30 μg/5 μl ICV, listed as Test Compound
[5] = reference compounds, [3H]DPDPE bound (2 nM)

Sequence of μ opiate receptor (A0ACM8Q262 1-400): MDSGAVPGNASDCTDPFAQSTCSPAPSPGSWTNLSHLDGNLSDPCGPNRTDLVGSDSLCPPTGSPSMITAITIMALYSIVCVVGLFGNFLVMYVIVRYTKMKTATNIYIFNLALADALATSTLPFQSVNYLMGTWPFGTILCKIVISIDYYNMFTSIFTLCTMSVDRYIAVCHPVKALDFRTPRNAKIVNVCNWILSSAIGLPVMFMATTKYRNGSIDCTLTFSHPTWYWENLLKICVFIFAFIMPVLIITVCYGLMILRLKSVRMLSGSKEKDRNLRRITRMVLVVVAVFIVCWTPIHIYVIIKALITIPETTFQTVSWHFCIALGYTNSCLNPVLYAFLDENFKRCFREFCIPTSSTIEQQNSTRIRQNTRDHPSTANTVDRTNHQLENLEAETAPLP
Sequence of δ opiate receptor (A0A286XTF2 1-366): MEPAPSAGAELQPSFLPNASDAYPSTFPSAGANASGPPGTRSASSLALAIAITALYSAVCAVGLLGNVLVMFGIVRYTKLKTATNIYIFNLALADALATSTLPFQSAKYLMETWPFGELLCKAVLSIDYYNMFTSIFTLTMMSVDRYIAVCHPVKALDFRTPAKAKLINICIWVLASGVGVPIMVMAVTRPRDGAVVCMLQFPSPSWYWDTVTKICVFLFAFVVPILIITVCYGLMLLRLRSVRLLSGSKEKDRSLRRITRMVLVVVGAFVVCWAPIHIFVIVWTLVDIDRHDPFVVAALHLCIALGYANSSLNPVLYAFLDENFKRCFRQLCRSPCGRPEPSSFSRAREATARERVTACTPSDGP

O=C1CN2C(=O)CCN(CCc3ccc(O)cc3)C2CN1CCc1ccccc1 (centres unmarked) [Compound 5]
IC50 (μ opiate receptor): 5400 ± 700 nM | Ki (μ opiate receptor): 640 ± 80 nM | inhibition at 10 µM (μ opiate receptor; [2]): 64% | % Prolong. (male ICR mice; 10 μg/5 μl ICV): 6% | tail flick response time, 1 Min. (single animal) (male ICR mice; [3]): 7.5 seconds (2×) and 6.7 seconds and 6.8 seconds | tail flick response time, 1 Min. (Avg.) (male ICR mice; 10 μg/5 μl ICV): Avg. 7.1 seconds | tail flick response time, 0 Time (Avg.) (male ICR mice; 10 μg/5 μl ICV): Avg. = 6.7 seconds | tail flick response time, 0 Time (single animal) (male ICR mice; [3]): 6.5 s and 7.2 s and 6.9 s and 6.2 s | % Prolong. (male ICR mice; 30 μg/5 μl ICV): 63% | tail flick response time, 1 Min. (single animal) (male ICR mice; [4]): >15 seconds (2×) and 7.2 seconds and 6.3 seconds | tail flick response time, 1 Min. (Avg.) (male ICR mice; 30 μg/5 μl ICV): Avg. > 15 seconds | tail flick response time, 0 Time (Avg.) (male ICR mice; 30 μg/5 μl ICV): Avg. = 6.7 seconds | tail flick response time, 0 Time (single animal) (male ICR mice; [4]): 6.5 s and 6.7 s and 7.2 s and 6.3 s | % Prolong. (male ICR mice; 100 μg/5 μl ICV): 100% | tail flick response time, 1 Min. (single animal) (male ICR mice; 100 μg/5 μl ICV): >15 s | tail flick response time, 1 Min. (Avg.) (male ICR mice; 100 μg/5 μl ICV): Avg. > 15 seconds | tail flick response time, 0 Time (Avg.) (male ICR mice; 100 μg/5 μl ICV): Avg. = 6.5 seconds | tail flick response time, 0 Time (single animal) (male ICR mice; 100 μg/5 μl ICV, listed as Test Compound): 6.5 seconds (2×) and 6.3 seconds and 6.8 seconds | analgesic potency relative to morphine (male ICR mice; ICV, tail flick): 10%-15% | IC50 (δ opiate receptor; read-out: IC50): 6900 ± 1200 nM | Ki (δ opiate receptor; read-out: Ki): 1700 ± 300 nM | inhibition at 10 µM (δ opiate receptor; [2]): 60%

CCCCCN1C[C@@H]2N(C(=O)OCCc3ccc(O)cc3)CCC(=O)N2[C@@H](CCc2ccccc2)C1=O [Compound 30]
IC50 [1]: 27 nM

C[C@@H](NC(=O)[C@@H](N)Cc1ccc(O)cc1)C(=O)NCC(=O)N(C)[C@@H](Cc1ccccc1)C(=O)NCCO [DAMGO, (D-Ala^2, N-methyl-phe^4, gly-ol^5)-enkephalin]
Hill Coefficient (μ opiate receptor): 0.92 | IC50 (μ opiate receptor): 6.5 nM | Ki (μ opiate receptor): 0.59 nM | IC50 (δ opiate receptor): 4800 nM | Ki (δ opiate receptor): 1200 nM | Hill Coefficient (δ opiate receptor; [5]): 1.08

CN1CC[C@]23c4c5ccc(O)c4O[C@H]2[C@@H](O)C=C[C@H]3[C@H]1C5 [Morphine, reference compound]
% Prolong. (male ICR mice; 10 μg/5 μl ICV): 100% | tail flick response time, 1 Min. (single animal) (male ICR mice; 10 μg/5 μl ICV): >15 s | tail flick response time, 1 Min. (Avg.) (male ICR mice; 10 μg/5 μl ICV): Avg. > 15 seconds | tail flick response time, 0 Time (single animal) (male ICR mice; 10 μg/5 μl ICV): 7.5 s and 6.3 s and 7.2 s and 6.8 s | tail flick response time, 0 Time (Avg.) (male ICR mice; 10 μg/5 μl ICV): Avg. = 7.0 seconds

Oc1ccc2c3c1O[C@H]1c4[nH]c5ccccc5c4C[C@@]4(O)[C@@H](C2)N(CC2CC2)CC[C@]314 [Naltrindole]
Hill Coefficient (μ opiate receptor): 0.98 | IC50 (μ opiate receptor): 27 nM | Ki (μ opiate receptor): 2.5 nM | Hill Coefficient (δ opiate receptor; [5]): 0.53

Oc1ccc2c3c1O[C@H]1c4[nH]c5c(c4C[C@@]4(O)[C@@H](C2)N(CC2CC2)CC[C@]314)C[C@@]1(O)[C@H]2Cc3ccc(O)c4c3[C@@]1(CCN2CC1CC1)[C@H]5O4 [Norbinaltorphimine]
Hill Coefficient (μ opiate receptor): 1.13 | IC50 (μ opiate receptor): 280 nM | Ki (μ opiate receptor): 26 nM

C[C@@H](NC(=O)[C@@H](N)Cc1ccc(O)cc1)C(=O)NCC(=O)N(C)[C@@H](Cc1ccccc1)C(=O)NCCO [[^3H]DAMGO]
Kd (μ opiate receptor; read-out: Kd of radioligand): 0.27 nM

(D-pen^3, D-pen^5) enkephalin [DPDPE]
Hill Coefficient (μ opiate receptor): 1.32 | Hill Coefficient (δ opiate receptor): 0.86

— patent publication US7598253B2, “Reverse-turn mimetics and methods relating thereto” (Myriad Genetics, Inc., priority 1995, dated 2009)
